According to US20240108634A1, “COMPOSITIONS AND METHODS FOR INHIBITING YAP” (The United States Government as represented by the …, priority 2021, published 2024):

Molecular target: T1, YAP1 (residues 50-171) / TEAD1 (residues 194-411) association (Homo sapiens, UniProt P46937)
T1 construct: His; made in house
Experiment: In vitro GST pull-down of His-tagged YAP1 with GST-TEAD1
Assay type: binding
Conditions: concentration-dependent
Procedure: FIGS. 1A-G show the identification of a YAP1-TEAD1 binding interface inhibitor. […] The Gal4 DBD was fused to residues 50-171 of human YAP1 and the Gal4 AD was fused to residues 194-411 of human TEAD1. These fusions were expressed in yeast containing reporters harboring Gal4 upstream activating sequences (UAS). […] Yeast expressing either p53-DBD and SV40 large T antigen-AD fusions or YAP1-DBD and TEAD1-AD fusions were plated on selective media. Compounds were pinned onto the plate surfaces by robotic transfer and subsequently examined for halo formation (indicated by red circles). […] Pull-down products were analyzed by SDS-PAGE and silver staining. […] Raw binding sensorgrams obtained at each concentration were fitted to a 1:1 binding model and Kon, Koff and KD were calculated by simultaneous non-linear regression analyses.
Results. […] To examine the mechanism by which NSC682769 inhibits YAP, the ability of full-length human YAP1 to bind to NSC682769 cross-linked affinity beads prepared using a photo-cross-linking procedure (Holmes B, et al. (2016) J Biol Chem 291: 14146-14159) was determined. Recombinant YAP was incubated with control, IRES-J007 (negative control), or NSC682769-coupled beads and binding analyzed by immunoblotting for YAP (FIG. 1F). […]

T1 sequence (P46937 50-171): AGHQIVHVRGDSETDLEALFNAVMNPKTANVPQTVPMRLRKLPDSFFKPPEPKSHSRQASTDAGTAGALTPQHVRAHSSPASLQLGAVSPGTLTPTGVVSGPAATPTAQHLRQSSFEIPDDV

## COc1ccc(-c2cc(-c3ccccc3)nc3c2CC(=O)Nc2ccccc2-3)cc1OC [NSC682769]
  Inhibition of His-tagged YAP1 and GST-TEAD1 association: marked inhibition
